# How the values were obtained:
# rat VR1 [1] = target: T1, rat VR1 (Rattus norvegicus, UniProt O35433); assay: [3H]resiniferatoxin (RTX) competition binding assay, VR1-transfected CHO cells
# T1 construct: expressed in transfected cells
# Method: The pUHG102 VR1 plasmid was transfected into CHO cells containing the pTet Off regulatory plasmid (Clontech). In these cells, expression of the VR1 is repressed in the presence of tetracycline but is induced upon removal of the antibiotic. Stable clones were isolated in culture medium containing puromycin (10 μg/mL) and maintained in HAM F12 medium supplemented with tetracycline (1 μg/mL), 5 μg/ml geniticin, 25 mM HEPES, 10% FBS. Cells utilized for assays were grown in culture medium without antibiotic for 48 h before use. Cells were seeded in T75 cell culture flasks in media without antibiotics and grown to approximately 90% confluence. The flasks were then washed with PBS and harvested in 0.25% trypsin, 1 mM EDTA. The cells were pelleted by gentle centrifugation and stored at −20° C. until assay.
# Competition Binding Assay
# Binding studies with [^3H]resiniferatoxin (RTX) were carried out as described previously with minor modifications (Szallasi et al., 1992). Binding assay mixtures were set up on ice and contained 50-100 pM [^3H]RTX, various concentrations of competing ligands, 0.25 mg/mL BSA (Cohn fraction V), and about 5×10^5 VR1-transfected cells. The final volume was adjusted to 350 μL with DPBS with Ca^2+ and Mg^2+ and 0.25 mg/mL bovine serum albumin. Non-specific binding was determined in the presence of 100 nM nonradioactive RTX. The binding reaction was initiated by transferring the assay mixtures to a 37° C. water bath and was terminated after a 60 min incubation period by cooling the tubes on ice. To reduce non-specific binding, 200 μg/ml α-glycoprotein was added. Membrane-bound RTX was then separated from the free by pelleting the membranes in a Beckman 12 benchtop centrifuge (15 min, maximal velocity), the tips of the tubes containing the pellets were cut off, and the radioactivity was determined by scintillation counting. Equilibrium binding parameters (Ki and cooperativity) were determined by fitting the Hill equation to the measured values with the aid of the program MicroCal Origin 6.0.
# (§1) Initial stocks were dissolved in DMSO. For the binding assays, compounds were diluted in with DPBS with Ca^2+ and Mg^2+ and 0.25 mg/mL bovine serum albumin. For the calcium uptake assays, compounds were diluted in DMEM with 0.25 mg/mL bovine serum albumin.
# rat VR1 [2] = target: T1, rat VR1; assay: 45Ca2+-uptake assay in CHO/VR1 cells, antagonism of capsaicin-stimulated uptake; format: cell-based; details: 45Ca2+ uptake stimulated by 50 nM capsaicin
# Method: as §1
# Molecules were characterized to determine whether they were full agonists, partial agonists, or antagonists. For studies of ^45Ca^2+ uptake by CHO/VR1 cells (Tet-off cells), the cells were plated in 24-well plates to yield a cell density 20-40% of that required to produce confluence. The next day the medium was changed to remove the tetracycline and induce VR1 expression. Experiments were performed approximately 36-40 hours after induction. For ^45Ca^2+ uptake assay, cells were incubated for 5 min at 37° C. in a total volume of 400 μL of serum free DMEM (containing 1.8 mM CaCl2) in the presence of 0.25 mg/mL BSA (Sigma), 1 μCi/mL ^45Ca^2+ (5-30 Ci/g from ICN, CA), and increasing concentrations of the compound to be tested. Immediately after the incubation, extracellular ^45Ca^2+ was removed by washing the cells three times with cold DPBS (containing 1.8 mM CaCl2). Then 400 μl RIPA buffer (50 mM Tris pH 7.4; 150 mM NaCl; 1% Triton X-100; 0.1% SDS; 1% sodium deoxycholate) was added to each well in order to lyse the cells. Plates were shaken slowly for 20 min; then 306 μL of cell lysate was transferred from each well into a scintillation vial and radioactivity was determined by scintillation counting. For each data point in each experiment, four wells were assayed. Data from these experiments were analyzed by computer fit to the Hill equation. At least 3 separate experiments were carried out for each compound. In order to determine antagonist activity, studies were performed in exactly the same fashion with the exception that 50 nM capsaicin was added to the assay mixture to stimulate ^45Ca^2+ uptake.
# [3] = competition with [3H]RTX, rat VR1 in CHO cells, read-out: Ki (nM) Binding Affinity
# T1 sequence (O35433 whole entry): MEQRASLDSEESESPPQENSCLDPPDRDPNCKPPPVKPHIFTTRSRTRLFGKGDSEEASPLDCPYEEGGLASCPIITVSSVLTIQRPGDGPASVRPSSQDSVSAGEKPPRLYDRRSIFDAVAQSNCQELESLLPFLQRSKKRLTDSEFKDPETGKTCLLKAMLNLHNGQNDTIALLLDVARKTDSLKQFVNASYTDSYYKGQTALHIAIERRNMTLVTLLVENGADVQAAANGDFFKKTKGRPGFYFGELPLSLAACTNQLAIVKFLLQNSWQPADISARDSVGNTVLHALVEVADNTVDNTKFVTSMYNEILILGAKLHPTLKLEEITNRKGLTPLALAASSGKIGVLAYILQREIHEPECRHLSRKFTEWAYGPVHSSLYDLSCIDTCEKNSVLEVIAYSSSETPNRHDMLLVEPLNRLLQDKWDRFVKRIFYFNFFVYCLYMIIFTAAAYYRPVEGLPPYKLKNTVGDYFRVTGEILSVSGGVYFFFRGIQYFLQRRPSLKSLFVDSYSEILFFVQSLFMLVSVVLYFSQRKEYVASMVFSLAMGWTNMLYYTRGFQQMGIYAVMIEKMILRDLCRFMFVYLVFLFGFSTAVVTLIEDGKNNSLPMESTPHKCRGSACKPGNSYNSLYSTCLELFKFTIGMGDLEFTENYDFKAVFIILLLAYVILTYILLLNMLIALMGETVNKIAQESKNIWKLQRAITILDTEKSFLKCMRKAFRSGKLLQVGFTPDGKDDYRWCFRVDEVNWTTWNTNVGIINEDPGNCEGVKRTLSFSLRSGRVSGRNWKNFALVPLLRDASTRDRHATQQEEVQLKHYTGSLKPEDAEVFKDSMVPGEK
smiles,measurement,setting,value
"Cc1ccc(CCCNC(=O)C(C)(C)c2ccc(NS(C)(=O)=O)c(F)c2)cc1C [9-5, N-[3-(3,4-Dimethylphenyl)propyl]-2-[3-fluoro-4-(methylsulfonylamino)phenyl]-2-methylpropionamide]",Ki,rat VR1 [1],960 nM
same,Ki,rat VR1 [2],418 nM
same,melting point,,145 to 146 °C
"C[C@H](NC(=S)NC[C@H](COC(=O)C(C)(C)C)Cc1ccccc1)c1ccc(NS(C)(=O)=O)cc1 [18-3, N-[(2R)-2-Benzyl-3-(pivaloyloxy)propyl]-N′-{(1S)-1-[4-(methylsulfonylamino)phenyl]ethyl}thiourea]",Ki,rat VR1 [1],1140 nM
same,Ki,rat VR1 [2],3470 nM
same,melting point,,58 to 62 °C
"C[C@H](C(=O)N[C@@H](COC(=O)C(C)(C)C)Cc1ccccc1)c1ccc(NS(C)(=O)=O)c(F)c1 [6-1, N—[(R)-1-Benzyl-2-(pivaloyloxy)ethyl]-(S)-2-[3-fluoro-4-(methylsulfonylamino)phenyl]propionamide]",Ki,rat VR1 [1]; [3],12800 nM
same,Ki,rat VR1 [2],1470 nM
same,melting point,,115 °C
"C[C@@H](NC(=S)NC[C@H](COC(=O)C(C)(C)C)Cc1ccc(C(C)(C)C)cc1)c1ccc(NS(C)(=O)=O)cc1 [18-11, N-[(2R)-2-(4-tert-Butylbenzyl)-3-(pivaloyloxy)propyl]-N′-{(1R)-1-[4-(methylsulfonylamino)phenyl]ethyl}thiourea]",Ki,rat VR1 [1],15.7 nM
same,Ki,rat VR1 [2],53 nM
same,melting point,,85 to 87 °C
"COc1cc(C(C)(C)C(=O)NCC(COC(=O)C(C)(C)C)Cc2ccc(C)c(C)c2)ccc1NS(C)(=O)=O (stereo not drawn) [9-3, N-[2-(3,4-Dimethylbenzyl)-3-pivaloyloxypropyl]-2-[3-methoxy-4-(methylsulfonylamino)phenyl]-2-methylpropionamide]",Ki,rat VR1 [1]; [3],152 nM
same,Ki,rat VR1 [2],133 nM
same,melting point,,100 to 103 °C
"C[C@@H](C(=O)NC[C@H](COC(=O)C(C)(C)C)Cc1ccc(C(C)(C)C)cc1)c1ccc(NS(C)(=O)=O)c(F)c1 [6-12, N-[(2R)-2-(4-t-Butylbenzyl)-3-(pivaloyloxy)propyl]-(2R)-2-[3-fluoro-4-(methylsulfonylamino)phenyl]propionamide]",Ki,rat VR1 [1]; [3],53 nM
same,Ki,rat VR1 [2],30.3 nM
same,melting point,,43 to 45 °C
"C[C@@H](NC(=S)NC[C@@H](COC(=O)C(C)(C)C)Cc1ccccc1)c1ccc(NS(C)(=O)=O)cc1 [18-2, N-[(2S)-2-Benzyl-3-(pivaloyloxy)propyl]-N′-{(1R)-1-[4-(methylsulfonylamino)phenyl]ethyl}thiourea]",Ki,rat VR1 [1],19.4 nM
same,Ki,rat VR1 [2],89 nM
same,melting point,,58 to 62 °C
"Cc1ccc(CC(CNC(=O)C(C)c2ccc(NS(C)(=O)=O)c(Cl)c2)COC(=O)C(C)(C)C)cc1C (stereo not drawn) [5-7, N-[2-(3,4-Dimethylbenzyl)-3-pivaloyloxypropyl]-2-[3-chloro-4-(methylsulfonylamino)phenyl]propionamide]",Ki,rat VR1 [1]; [3],11.3 nM
same,Ki,rat VR1 [2],35.7 nM
same,melting point,,127 to 129 °C
"CC(C(=O)NCC=C(c1ccc(F)cc1)c1ccc(F)cc1)c1ccc(NS(C)(=O)=O)c(F)c1 (stereo not drawn) [4-27, N-[3,3-Di(4-fluorophenyl)-2-propenyl]-2-[3-fluoro-4-(methylsulfonylamino)phenyl]propionamide]",Ki,rat VR1 [1]; [3],43.3 nM
same,Ki,rat VR1 [2],29.3 nM
same,melting point,,57 to 60 °C
"CC(NC(=O)NCc1ccc(C(C)(C)C)cc1)c1ccc(NS(C)(=O)=O)c(F)c1 (stereo not drawn) [23-2, N-(4-t-Butylbenzyl)-N′-{1-[3-fluoro-4-(methylsulfonylamino)phenyl]ethyl}urea]",Ki,rat VR1 [1],447 nM
same,Ki,rat VR1 [2],298 nM
same,melting point,,152 to 154 °C
"CC(C)C(NC(=S)NCc1ccc(C(C)(C)C)cc1)c1ccc(NS(C)(=O)=O)c(F)c1 (stereo not drawn) [20-13, N′-(4-t-Butylbenzyl)-N-{1-[4-(methylsulfonylamino)-3-fluorophenyl]-2-methylpropyl}thiourea]",Ki,rat VR1 [1]; [3],338 nM
same,Ki,rat VR1 [2],223 nM
same,melting point,,84 °C
"CC(C(=O)NCC(COC(=O)C(C)(C)C)Cc1ccc(C(C)(C)C)cc1)c1ccc(NS(C)(=O)=O)cc1 (stereo not drawn) [5-2, N-[2-(4-t-Butylbenzyl)-3-pivaloyloxypropyl]-2-[4-(methylsulfonylamino)phenyl]propionamide]",Ki,rat VR1 [1]; [3],55.2 nM
same,Ki,rat VR1 [2],52 nM
same,melting point,,97 to 100 °C
"COc1cc(C(C)NC(=S)NCc2ccc(C(C)(C)C)cc2)ccc1NS(C)(=O)=O (stereo not drawn) [15-3, N-(4-t-Butylbenzyl)-N′-{1-[3-methoxy-4-(methylsulfonylamino)phenyl]ethyl}thiourea]",Ki,rat VR1 [1]; [3],66.5 nM
same,Ki,rat VR1 [2],28.6 nM
same,melting point,,80 to 82 °C
"CC(C(=O)NCc1ccc(C(C)(C)C)cc1)c1cc(F)c(NS(C)(=O)=O)c(F)c1 (stereo not drawn) [1-55, N-(4-tert-Butylbenzyl)-2-[3,5-difluoro-4-(methylsulfonylamino)phenyl]propionamide]",Ki,rat VR1 [1]; [3],19.9 nM
same,Ki,rat VR1 [2],7.38 nM
same,melting point,,80 to 81 °C
"CC(C(=O)NCCC(c1ccccc1)c1ccccc1)c1ccc(NS(C)(=O)=O)c(F)c1 (stereo not drawn) [4-24, N-(3,3-Diphenylpropyl)-2-[3-fluoro-4-(methylsulfonylamino)phenyl]propionamide]",Ki,rat VR1 [1],128 nM
same,Ki,rat VR1 [2],36.6 nM
same,melting point,,66 to 68 °C
"Cc1ccc(CC(CNC(=O)C2(c3ccc(NS(C)(=O)=O)cc3)CC2)COC(=O)C(C)(C)C)cc1C (stereo not drawn) [12-1, N-[2-(3,4-Dimethylbenzyl)-3-pivaloyloxypropyl]-1-[4-(methylsulfonylamino)phenyl]cyclopropanecarboxamide]",Ki,rat VR1 [1]; [3],396 nM
same,Ki,rat VR1 [2],197 nM
same,melting point,,54 to 56 °C
"CC(C(=O)NCc1ccc(C(F)(F)F)cc1)c1ccc(NS(C)(=O)=O)c(F)c1 (stereo not drawn) [4-10, N-(4-Trifluoromethylbenzyl)-2-[3-fluoro-4-(methylsulfonylamino)phenyl]propionamide]",Ki,rat VR1 [1]; [3],657 nM
same,Ki,rat VR1 [2],274 nM
same,melting point,,150 to 152 °C
"CC(C(=O)NCc1ccc(Cl)cc1)c1ccc(NS(C)(=O)=O)c(F)c1 (stereo not drawn) [4-1, N-(4-Chlorobenzyl)-2-[3-fluoro-4-(methylsulfonylamino)phenyl]propionamide]",Ki,rat VR1 [1]; [3],1060 nM
same,Ki,rat VR1 [2],367 nM
same,melting point,,129 to 130 °C
"CC(C)(C)c1ccc(CNC(=S)NC(Cc2ccccc2)c2ccc(NS(C)(=O)=O)c(F)c2)cc1 (stereo not drawn) [20-15, N-(4-t-Butylbenzyl)-N′-{1-[4-(methylsulfonylamino)-3-fluorophenyl]-2-phenylethyl}thiourea]",Ki,rat VR1 [1]; [3],1740 nM
same,Ki,rat VR1 [2],695 nM
same,melting point,,116 °C
"C[C@@H](C(=O)NC[C@@H](COC(=O)C(C)(C)C)Cc1ccc(C(C)(C)C)cc1)c1ccc(NS(C)(=O)=O)c(F)c1 [6-11, N-[(2S)-2-(4-t-Butylbenzyl)-3-(pivaloyloxy)propyl]-(2R)-2-[3-fluoro-4-(methylsulfonylamino)phenyl]propionamide]",Ki,rat VR1 [1]; [3],63.8 nM
same,Ki,rat VR1 [2],142 nM
same,melting point,,44 to 46 °C
"Cc1ccc(C(=CCNC(=O)C(C)c2ccc(NS(C)(=O)=O)c(F)c2)c2ccc(C)cc2)cc1 (stereo not drawn) [4-26, N-[3,3-Di(4-methylphenyl)-2-propenyl]-2-[3-fluoro-4-(methylsulfonylamino)phenyl]propionamide]",Ki,rat VR1 [1],36 nM
same,Ki,rat VR1 [2],8.03 nM
same,melting point,,163 to 165 °C
"Cc1ccc(CC(CNC(=O)C(C)c2ccc(NS(C)(=O)=O)cc2)COC(=O)C(C)(C)C)cc1C (stereo not drawn) [5-1, N-[2-(3,4-Dimethylbenzyl)-3-pivaloyloxypropyl]-2-[4-(methylsulfonylamino)phenyl]propionamide]",Ki,rat VR1 [1]; [3],119 nM
same,Ki,rat VR1 [2],38 nM
same,melting point,,112 to 115 °C

# From patent publication US8642657B2 (Gruenenthal GmbH, priority 2003, dated 2014)
